Tests used:
bedstraw = experiment: Test B pre/postemergence bedstraw; type: in vivo, Galium aparine
Procedure, shortened: (§1)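 Herbicidal effect was estimated by eye on a ten-point control scale after plants spent twelve to sixteen days in a greenhouse following soil or foliar treatment. Foliar sprays targeted plants at one to four leaves; all doses were formulated in a non-phytotoxic solvent with surfactant.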

soybean = experiment: Test B pre/postemergence soybean; type: in vivo, Glycine max
Procedure, shortened: as §1

wild oat [1] = experiment: Test B pre/postemergence wild oat; type: in vivo, Avena fatua
Procedure, shortened: as §1

bamyardgrass = experiment: Test B flood test barnyardgrass; type: in vivo, Echinochloa crus-galli
Procedure, shortened: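 Read-out is a visual response score from 0 (no effect) to 10 (complete control), assigned by comparison with untreated controls. Treatment was applied at the 2-leaf stage, and plants stayed in the greenhouse for twelve to sixteen days before scoring.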

winter wheat [2] = experiment: Test E winter wheat; type: in vivo, Triticum aestivum; details: Postemergence
Procedure, shortened: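 Greenhouse test: for postemergence, foliar application at 1- to 4-leaf stage; compound in non-phytotoxic solvent with surfactant. Rating is visual, relative to untreated controls, about 21 to 28 days after treatment.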

blackgrass = experiment: Test E blackgrass; type: in vivo, Alopecurus myosuroides; details: Preemergence
green foxtail = experiment: Test E green foxtail; type: in vivo, Setaria viridis; details: Preemergence
Italian ryegrass = experiment: Test E Italian ryegrass; type: in vivo, Lolium multiflorum; details: Preemergence
winter wheat [3] = experiment: Test E winter wheat; type: in vivo, Triticum aestivum; details: Preemergence
wild oat [4] = experiment: Test E wild oat; type: in vivo, Avena fatua; details: Preemergence
winter barley = experiment: Test E winter barley; type: in vivo, Hordeum vulgare; details: Preemergence
[5] = Preemergence, Rate 62 g/ha, scale of 0 to 10 where 0 is no effect and 10 is complete control
[6] = Preemergence, Rate 250 g/ha, scale of 0 to 10 where 0 is no effect and 10 is complete control
[7] = Preemergence, Rate 500 g/ha, scale of 0 to 10 where 0 is no effect and 10 is complete control
[8] = Rate 62 g/ha, Postemergence, scale 0 to 10 (0 no effect, 10 complete control)
[9] = Rate 125 g/ha, Postemergence, scale of 0 to 10 where 0 is no effect and 10 is complete control
[10] = Rate 250 g/ha, Postemergence, scale of 0 to 10 where 0 is no effect and 10 is complete control
[11] = Rate 500 g/ha, Postemergence, scale 0 to 10, 0 no effect, 10 complete control
[12] = Rate 125 g/ha, Pre-emergence, flood test species, scale 0 to 10 where 0 is no effect and 10 is complete control
[13] = Rate 250 g/ha, Pre-emergence, flood-test species, scale 0 to 10, 0 is no effect, 10 is complete control
[14] = Rate 500 g/ha, Pre-emergence, flood test species, scale 0 to 10 (0 no effect, 10 complete control)
[15] = Rate 250 g/ha, 0 to 100 scale, 0 is no effect, 100 is complete control
[16] = Rate 1000 g/ha, 0 to 100 scale where 0 is no effect and 100 is complete control
[17] = Rate 500 g/ha, 0 to 100 scale, 0 is no effect, 100 is complete control
[18] = Rate 500 g/ha, 0 to 100 scale (0 no effect, 100 complete control)
[19] = Rate 1000 g/ha, 0 to 100 scale, 0 no effect, 100 complete control
[20] = Rate 250 g/ha, 0 to 100 scale, 0 no effect, 100 complete control
[21] = Postemergence, Rate 125 g/ha, scale 0 to 10, 0 is no effect, 10 is complete control
[22] = Preemergence, Rate 62 g/ha, scale 0 to 10 (0 no effect, 10 complete control)
[23] = Rate 62 g/ha, Postemergence, scale of 0 to 10 where 0 is no effect and 10 is complete control
[24] = Rate 125 g/ha, 0 to 100 scale (0 no effect, 100 complete control)

## CCN(C(=O)n1oc(=O)n(C(C)C)c1=O)C1CCCCC1 [Compound 309]
bedstraw; [5]
  Bedstraw plant response rating: 0
bedstraw; Preemergence, Rate 125 g/ha
  Bedstraw plant response rating (0 to 10 scale): 0
bedstraw; [6]
  Bedstraw plant response rating: 0
bedstraw; [7]
  Bedstraw plant response rating: 0
bedstraw; [8]
  Bedstraw plant response rating: 0
bedstraw; [9]
  Bedstraw plant response rating: 0
bedstraw; [10]
  Plant response rating, Bedstraw: 0
bedstraw; [11]
  Bedstraw plant response rating: 0
soybean; [5]
  Soybean plant response rating: 0
soybean; Preemergence, Rate 125 g/ha
  Soybean plant response rating (0 to 10 scale): 0
soybean; [6]
  Soybean plant response rating: 0
soybean; [7]
  Soybean plant response rating: 0
soybean; [8]
  Soybean plant response rating: 2
soybean; [9]
  Soybean plant response rating: 2
soybean; [10]
  Plant response rating, Soybean: 2
Wild oat [1]; [5]
  Wild oats plant response rating: 0
Wild oat [1]; Preemergence, Rate 125 g/ha
  Wild oats plant response rating (0 to 10 scale): 0
Wild oat [1]; [6]
  Wild oats plant response rating: 0
Wild oat [1]; [7]
  Wild oats plant response rating: 2
Wild oat [1]; [8]
  Wild oats plant response rating: 0
Wild oat [1]; [9]
  Wild oats plant response rating: 0
Wild oat [1]; [10]
  Plant response rating, Wild oats: 0
bamyardgrass; Pre-emergence, Rate 1000 g/ha, scale 0 to 10 (0 no effect, 10 complete control)
  Barnyardgrass plant response rating: 0
bamyardgrass; [12]
  Barnyardgrass plant response rating: 0
bamyardgrass; [13]
  Barnyardgrass plant response rating: 0
bamyardgrass; [14]
  Barnyardgrass plant response rating: 0
Winter wheat [2]; [15]
  Plant response rating, Wheat (winter): 50
Winter wheat [2]; [16]
  Plant response rating, Wheat (winter): 80
Winter wheat [2]; [17]
  Plant response rating, Wheat (winter): 70
blackgrass; Rate 250 g/ha, 0 to 100 scale
  Plant response rating, Blackgrass: 60
blackgrass; [18]
  Plant response rating, Blackgrass: 60
blackgrass; [19]
  Plant response rating, Blackgrass: 75
Green foxtail; Rate 250 g/ha, 0 to 100 scale
  Plant response rating, Green foxtail: 65
Green foxtail; [18]
  Plant response rating, Green foxtail: 100
Green foxtail; [19]
  Plant response rating, Green foxtail: 100
Italian ryegrass; Rate 250 g/ha, 0 to 100 scale
  Plant response rating, I. Ryegrass: 50
Italian ryegrass; [18]
  Plant response rating, I. Ryegrass: 60
Italian ryegrass; [19]
  Plant response rating, I. Ryegrass: 70
Winter wheat [3]; Rate 250 g/ha, 0 to 100 scale
  Plant response rating, Wheat (winter): 70
Winter wheat [3]; [18]
  Plant response rating, Wheat (winter): 65
Winter wheat [3]; [19]
  Plant response rating, Wheat (winter): 70
Wild oat [4]; Rate 250 g/ha, 0 to 100 scale
  Plant response rating, Wild oat: 50
Wild oat [4]; [18]
  Plant response rating, Wild oat: 50
Wild oat [4]; [19]
  Plant response rating, Wild oat: 70
Winter barley; [20]
  Plant response rating, Barley (winter): 50
Winter barley; [18]
  Plant response rating, Barley (winter): 20
Winter barley; [19]
  Plant response rating, Barley (winter): 70

## CC(C)N(C(=O)n1oc(=O)n(C2CC3CCC2C3)c1=O)c1ccccc1 (centres unmarked) [Compound 328]
bedstraw; [21]
  Plant response rating, Bedstraw: 1
bedstraw; [5]
  Bedstraw plant response rating: 0
bedstraw; Preemergence, Rate 125 g/ha
  Bedstraw plant response rating (0 to 10 scale): 0
bedstraw; [8]
  Bedstraw plant response rating: 0
bedstraw; [10]
  Plant response rating, Bedstraw: 4
soybean; [21]
  Plant response rating, Soybean: 2
soybean; [5]
  Soybean plant response rating: 0
soybean; Preemergence, Rate 125 g/ha
  Soybean plant response rating (0 to 10 scale): 0
soybean; [6]
  Soybean plant response rating: 0
soybean; [7]
  Soybean plant response rating: 0
soybean; [10]
  Plant response rating, Soybean: 5
soybean; [11]
  Plant response rating, Soybean: 6
Wild oat [1]; [21]
  Plant response rating, Wild oats: 0
Wild oat [1]; [5]
  Wild oats plant response rating: 0
Wild oat [1]; Preemergence, Rate 125 g/ha
  Wild oats plant response rating (0 to 10 scale): 0
Wild oat [1]; [6]
  Wild oats plant response rating: 0
Wild oat [1]; [7]
  Wild oats plant response rating: 1
Wild oat [1]; [8]
  Wild oats plant response rating: 0
Wild oat [1]; [10]
  Plant response rating, Wild oats: 0
Wild oat [1]; [11]
  Plant response rating, Wild oats: 0
bamyardgrass; Rate 62 g/ha, headed Pre-emergence (flood test species), scale 0 to 10 (0 no effect, 10 complete control)
  Barnyardgrass plant response rating: 0
bamyardgrass; [12]
  Barnyardgrass plant response rating: 0
bamyardgrass; [13]
  Barnyardgrass plant response rating: 0
bamyardgrass; [14]
  Barnyardgrass plant response rating: 0
Winter wheat [2]; [15]
  Plant response rating, Wheat (winter): 65
Winter wheat [2]; [16]
  Plant response rating, Wheat (winter): 80
Winter wheat [2]; [17]
  Plant response rating, Wheat (winter): 70
blackgrass; Rate 250 g/ha, 0 to 100 scale
  Plant response rating, Blackgrass: 50
blackgrass; [18]
  Plant response rating, Blackgrass: 50
blackgrass; [19]
  Plant response rating, Blackgrass: 40
Green foxtail; Rate 250 g/ha, 0 to 100 scale
  Plant response rating, Green foxtail: 100
Green foxtail; [18]
  Plant response rating, Green foxtail: 85
Green foxtail; [19]
  Plant response rating, Green foxtail: 100
Italian ryegrass; Rate 250 g/ha, 0 to 100 scale
  Plant response rating, I. Ryegrass: 65
Italian ryegrass; [18]
  Plant response rating, I. Ryegrass: 60
Italian ryegrass; [19]
  Plant response rating, I. Ryegrass: 70
Winter wheat [3]; Rate 250 g/ha, 0 to 100 scale
  Plant response rating, Wheat (winter): 40
Winter wheat [3]; [18]
  Plant response rating, Wheat (winter): 70
Winter wheat [3]; [19]
  Plant response rating, Wheat (winter): 70
Wild oat [4]; Rate 250 g/ha, 0 to 100 scale
  Plant response rating, Wild oat: 70
Wild oat [4]; [18]
  Plant response rating, Wild oat: 50
Wild oat [4]; [19]
  Plant response rating, Wild oat: 60
Winter barley; [20]
  Plant response rating, Barley (winter): 40
Winter barley; [18]
  Plant response rating, Barley (winter): 50
Winter barley; [19]
  Plant response rating, Barley (winter): 70

## CC(C)N(C(=O)n1oc(=O)n(C2CCC2)c1=O)c1ccc(F)cc1F [Compound 351]
bedstraw; [6]
  Bedstraw plant response rating: 9
bedstraw; [7]
  Bedstraw plant response rating: 10
soybean; [21]
  Plant response rating, Soybean: 1
soybean; [22]
  Plant response rating, Soybean: 0
soybean; Preemergence, Rate 125 g/ha
  Soybean plant response rating (0 to 10 scale): 0
soybean; [6]
  Soybean plant response rating: 0
soybean; [7]
  Soybean plant response rating: 2
soybean; [23]
  Soybean plant response rating: 1
soybean; [11]
  Plant response rating, Soybean: 2
Wild oat [1]; [21]
  Plant response rating, Wild oats: 0
Wild oat [1]; [22]
  Plant response rating, Wild oats: 0
Wild oat [1]; Preemergence, Rate 125 g/ha
  Wild oats plant response rating (0 to 10 scale): 0
Wild oat [1]; [6]
  Wild oats plant response rating: 2
Wild oat [1]; [7]
  Wild oats plant response rating: 4
Wild oat [1]; [23]
  Wild oats plant response rating: 0
Wild oat [1]; [11]
  Plant response rating, Wild oats: 5
bamyardgrass; Postemergence (flood test), Rate 125 g/ha, scale 0 to 10, 0 is no effect, 10 is complete control
  Plant response rating, Barnyardgrass: 3
bamyardgrass; Rate 62 g/ha, Postemergence (flood test species), scale of 0 to 10 where 0 is no effect and 10 is complete control
  Barnyardgrass plant response rating: 0
bamyardgrass; Rate 62 g/ha, flood test species, Pre-emergence, visual evaluation after twelve to sixteen days
  Plant response rating, Barnyardgrass (0 to 10 scale, 0 is no effect, 10 is complete control): 0
bamyardgrass; [12]
  Barnyardgrass plant response rating: 0
bamyardgrass; Rate 250 g/ha, Postemergence (flood test species), scale of 0 to 10 where 0 is no effect and 10 is complete control
  Plant response rating, Barnyardgrass: 3
bamyardgrass; [13]
  Barnyardgrass plant response rating: 0
bamyardgrass; Rate 500 g/ha, listed under Postemergence (flood test species), scale 0 to 10, 0 no effect, 10 complete control
  Plant response rating, Barnyardgrass: 5
bamyardgrass; [14]
  Barnyardgrass plant response rating: 0
Winter wheat [2]; Rate 125 g/ha, 0 to 100 scale, 0 is no effect, 100 is complete control
  Plant response rating, Wheat (winter): 60
Winter wheat [2]; [15]
  Plant response rating, Wheat (winter): 70
Winter wheat [2]; [17]
  Plant response rating, Wheat (winter): 75
blackgrass; [24]
  Plant response rating, Blackgrass: 35
blackgrass; Rate 250 g/ha, 0 to 100 scale
  Plant response rating, Blackgrass: 85
blackgrass; [18]
  Plant response rating, Blackgrass: 100
Green foxtail; [24]
  Plant response rating, Green foxtail: 40
Green foxtail; Rate 250 g/ha, 0 to 100 scale
  Plant response rating, Green foxtail: 90
Green foxtail; [18]
  Plant response rating, Green foxtail: 85
Italian ryegrass; [24]
  Plant response rating, I. Ryegrass: 55
Italian ryegrass; Rate 250 g/ha, 0 to 100 scale
  Plant response rating, I. Ryegrass: 60
Italian ryegrass; [18]
  Plant response rating, I. Ryegrass: 60
Winter wheat [3]; [24]
  Plant response rating, Wheat (winter): 50
Winter wheat [3]; Rate 250 g/ha, 0 to 100 scale
  Plant response rating, Wheat (winter): 60
Winter wheat [3]; [18]
  Plant response rating, Wheat (winter): 70
Wild oat [4]; [24]
  Plant response rating, Wild oat: 70
Wild oat [4]; Rate 250 g/ha, 0 to 100 scale
  Plant response rating, Wild oat: 70
Wild oat [4]; [18]
  Plant response rating, Wild oat: 80
Winter barley; [24]
  Plant response rating, Barley (winter): 70
Winter barley; [20]
  Plant response rating, Barley (winter): 70
Winter barley; [18]
  Plant response rating, Barley (winter): 80

Reference: patent US6737383B1, “Herbicidal oxadiazolidines” (priority 1999, dated 2004)
